Source: ChEMBL document CHEMBL3525983, “Pharmacokinetics, metabolism, and disposition of rivoglitazone, a novel peroxisome proliferator-activated receptor γ agonist, in rats and monkeys” (Drug Metab Dispos, 2011)

How the values were obtained:
Rattus norvegicus [1] = assay: Drug level in F344/DuCrlCrlj rat plasma treated with [14C]rivoglitazone assessed as ratio of molar basis AUC (0 to t) at 1 mg/kg, po administered via gavage by LC-MS/MS analysis; format: ADME, organism-based; design: dose 1 mg/kg, dosed compound name [14C]Rivoglitazone, route oral; conditions: in vivo
[2] = Drug excretion in F344/DuCrlCrlj rat feces treated with [14C]rivoglitazone at 1 mg/kg, po administered via gavage measured during 0 to 48 hrs by radio-HPLC analysis; format: ADME, organism-based; design: dose 1 mg/kg, dosed compound name [14C]Rivoglitazone, route oral; conditions: in vivo
[3] = Drug excretion in F344/DuCrlCrlj rat urine treated with [14C]rivoglitazone at 1 mg/kg, po administered via gavage measured during 0 to 48 hrs by radio-HPLC analysis; format: ADME, organism-based; design: dose 1 mg/kg, dosed compound name [14C]Rivoglitazone, route oral; conditions: in vivo
[4] = Drug excretion in F344/DuCrlCrlj rat urine/feces treated with [14C]rivoglitazone at 1 mg/kg, po administered via gavage measured during 0 to 48 hrs by radio-HPLC analysis; format: ADME, organism-based; design: dose 1 mg/kg, dosed compound name [14C]Rivoglitazone, route oral; conditions: in vivo
[5] = Drug excretion in F344/DuCrlCrlj rat bile treated with [14C]rivoglitazone at 1 mg/kg, po administered via gavage measured during 0 to 48 hrs by radio-HPLC analysis; format: ADME, organism-based; design: dose 1 mg/kg, dosed compound name [14C]Rivoglitazone, route oral; conditions: in vivo
[6] = Retention time of the compound by LC-MS/MS analysis; format: physicochemical; design: dosed compound name [14C]Rivoglitazone
[7] = Drug excretion in F344/DuCrlCrlj rat urine/bile treated with [14C]rivoglitazone at 1 mg/kg, po administered via gavage measured during 0 to 48 hrs by radio-HPLC analysis; format: ADME, organism-based; design: dose 1 mg/kg, dosed compound name [14C]Rivoglitazone, route oral; conditions: in vivo
Rattus norvegicus [8] = assay: Drug level in F344/DuCrlCrlj rat plasma treated with [14C]rivoglitazone at 1 to 5 mg/kg, po administered as single dose via gavage by LC-MS/MS analysis; format: ADME, organism-based; design: dose 1-5 mg/kg, dosed compound name [14C]Rivoglitazone, route oral; conditions: in vivo
Rhesus monkey [9] = assay: Drug level in monkey plasma treated with [14C]rivoglitazone assessed as ratio of molar basis AUC (0 to t) at 1 mg/kg, po administered via gavage by LC-MS/MS analysis; format: ADME, organism-based, Macaca mulatta; design: dose 1 mg/kg, dosed compound name [14C]Rivoglitazone, route oral; conditions: in vivo
Rhesus monkey [10] = assay: Total drug excretion in monkey at 1 mg/kg, iv administered via tail vein measured during 0 to 168 hrs by liquid scintillation counting; format: ADME, organism-based, Macaca mulatta; design: dose 1 mg/kg, dosed compound name [14C]Rivoglitazone, route intravenous; conditions: in vivo
Rhesus monkey [11] = assay: Total drug excretion in monkey at 1 mg/kg, po administered via gavage measured during 0 to 48 hrs by liquid scintillation counting; format: ADME, organism-based, Macaca mulatta; design: dose 1 mg/kg, dosed compound name [14C]Rivoglitazone, route oral; conditions: in vivo
[12] = Drug excretion in monkey urine at 1 mg/kg, iv administered via tail vein measured during 0 to 168 hrs by liquid scintillation counting; format: ADME, organism-based, Macaca mulatta; design: dose 1 mg/kg, dosed compound name [14C]Rivoglitazone, route intravenous; conditions: rhesus monkey, in vivo
[13] = Drug excretion in F344/DuCrlCrlj rat urine at 1 mg/kg, po administered via gavage measured during 0 to 168 hrs by liquid scintillation counting; format: ADME, organism-based; design: dose 1 mg/kg, dosed compound name [14C]Rivoglitazone, route oral; conditions: in vivo
[14] = Drug excretion in bile duct-cannulated rat bile at 0.5 mg/kg, iv administered via tail vein measured during 0 to 48 hrs by liquid scintillation counting; format: ADME, organism-based; design: dose 0.5 mg/kg, dosed compound name [14C]Rivoglitazone, route intravenous; conditions: in vivo
Rattus norvegicus [15] = assay: Total drug excretion in F344/DuCrlCrlj rat at 1 mg/kg, iv administered via tail vein measured during 0 to 48 hrs by liquid scintillation counting; format: ADME, organism-based; design: dose 1 mg/kg, dosed compound name [14C]Rivoglitazone, route intravenous; conditions: in vivo
[16] = Drug excretion in bile duct-cannulated rat urine at 0.5 mg/kg, po administered via gavage measured during 0 to 48 hrs by liquid scintillation counting; format: ADME, organism-based; design: dose 0.5 mg/kg, dosed compound name [14C]Rivoglitazone, route oral; conditions: in vivo
[17] = Drug excretion in bile duct-cannulated rat bile at 0.5 mg/kg, po administered via gavage measured during 0 to 48 hrs by liquid scintillation counting; format: ADME, organism-based; design: dose 0.5 mg/kg, dosed compound name [14C]Rivoglitazone, route oral; conditions: in vivo
[18] = Drug excretion in monkey urine at 1 mg/kg, iv administered via tail vein measured during 0 to 48 hrs by liquid scintillation counting; format: ADME, organism-based, Macaca mulatta; design: dose 1 mg/kg, dosed compound name [14C]Rivoglitazone, route intravenous; conditions: rhesus monkey, in vivo
[19] = Drug excretion in monkey feces at 1 mg/kg, iv administered […] measured during 0 to 168 hrs by liquid scintillation counting; format: ADME, organism-based, Macaca mulatta; design: dose 1 mg/kg, dosed compound name [14C]Rivoglitazone, route intravenous; conditions: rhesus monkey, in vivo
Rattus norvegicus [20] = assay: Total drug excretion in F344/DuCrlCrlj rat at 1 mg/kg, po administered via gavage measured during 0 to 168 hrs by liquid scintillation counting; format: ADME, organism-based; design: dose 1 mg/kg, dosed compound name [14C]Rivoglitazone, route oral; conditions: in vivo
[21] = Drug excretion in monkey feces at 1 mg/kg, po administered via gavage measured during 0 to 168 hrs by liquid scintillation counting; format: ADME, organism-based, Macaca mulatta; design: dose 1 mg/kg, dosed compound name [14C]Rivoglitazone, route oral; conditions: rhesus monkey, in vivo
Rattus norvegicus [22] = assay: Total drug excretion in bile duct-cannulated rat at 0.5 mg/kg, po administered via gavage measured during 0 to 48 hrs by liquid scintillation counting; format: ADME, organism-based; design: dose 0.5 mg/kg, dosed compound name [14C]Rivoglitazone, route oral; conditions: in vivo
Rhesus monkey [23] = assay: Drug excretion in monkey cage wash at 1 mg/kg, po administered via gavage measured during 0 to 168 hrs by liquid scintillation counting; format: ADME, organism-based, Macaca mulatta; design: dose 1 mg/kg, dosed compound name [14C]Rivoglitazone, route oral; conditions: in vivo
[24] = Drug excretion in bile duct-cannulated rat feces at 0.5 mg/kg, iv administered via tail vein measured during 0 to 48 hrs by liquid scintillation counting; format: ADME, organism-based; design: dose 0.5 mg/kg, dosed compound name [14C]Rivoglitazone, route intravenous; conditions: in vivo
[25] = Drug excretion in monkey urine at 1 mg/kg, po administered via gavage measured during 0 to 48 hrs by liquid scintillation counting; format: ADME, organism-based, Macaca mulatta; design: dose 1 mg/kg, dosed compound name [14C]Rivoglitazone, route oral; conditions: rhesus monkey, in vivo
[26] = Drug excretion in F344/DuCrlCrlj rat feces at 1 mg/kg, iv administered via tail vein measured during 0 to 168 hrs by liquid scintillation counting; format: ADME, organism-based; design: dose 1 mg/kg, dosed compound name [14C]Rivoglitazone, route intravenous; conditions: in vivo
Rattus norvegicus [27] = assay: Drug excretion in bile duct-cannulated rat cage wash at 0.5 mg/kg, po administered via gavage measured during 0 to 48 hrs by liquid scintillation counting; format: ADME, organism-based; design: dose 0.5 mg/kg, dosed compound name [14C]Rivoglitazone, route oral; conditions: in vivo
[28] = Drug excretion in F344/DuCrlCrlj rat urine at 1 mg/kg, po administered via gavage measured during 0 to 48 hrs by liquid scintillation counting; format: ADME, organism-based; design: dose 1 mg/kg, dosed compound name [14C]Rivoglitazone, route oral; conditions: in vivo
[29] = Drug excretion in monkey feces at 1 mg/kg, po administered via gavage measured during 0 to 48 hrs by liquid scintillation counting; format: ADME, organism-based, Macaca mulatta; design: dose 1 mg/kg, dosed compound name [14C]Rivoglitazone, route oral; conditions: rhesus monkey, in vivo
[30] = Drug excretion in bile duct-cannulated rat urine at 0.5 mg/kg, iv administered via tail vein measured during 0 to 48 hrs by liquid scintillation counting; format: ADME, organism-based; design: dose 0.5 mg/kg, dosed compound name [14C]Rivoglitazone, route intravenous; conditions: in vivo
Rattus norvegicus [31] = assay: Total drug excretion in F344/DuCrlCrlj rat at 1 mg/kg, po administered via gavage measured during 0 to 48 hrs by liquid scintillation counting; format: ADME, organism-based; design: dose 1 mg/kg, dosed compound name [14C]Rivoglitazone, route oral; conditions: in vivo
[32] = Drug excretion in F344/DuCrlCrlj rat urine at 1 mg/kg, iv administered via tail vein measured during 0 to 48 hrs by liquid scintillation counting; format: ADME, organism-based; design: dose 1 mg/kg, dosed compound name [14C]Rivoglitazone, route intravenous; conditions: in vivo
Rhesus monkey [33] = assay: Total drug excretion in monkey at 1 mg/kg, iv administered via tail vein measured during 0 to 48 hrs by liquid scintillation counting; format: ADME, organism-based, Macaca mulatta; design: dose 1 mg/kg, dosed compound name [14C]Rivoglitazone, route intravenous; conditions: in vivo
Rhesus monkey [34] = assay: Drug excretion in monkey cage wash at 1 mg/kg, iv administered […] measured during 0 to 168 hrs by liquid scintillation counting; format: ADME, organism-based, Macaca mulatta; design: dose 1 mg/kg, dosed compound name [14C]Rivoglitazone, route intravenous; conditions: in vivo
Rattus norvegicus [35] = assay: Total drug excretion in bile duct-cannulated rat at 0.5 mg/kg, iv administered via tail vein measured during 0 to 48 hrs by liquid scintillation counting; format: ADME, organism-based; design: dose 0.5 mg/kg, dosed compound name [14C]Rivoglitazone, route intravenous; conditions: in vivo
[36] = Drug excretion in F344/DuCrlCrlj rat feces at 1 mg/kg, po administered via gavage measured during 0 to 48 hrs by liquid scintillation counting; format: ADME, organism-based; design: dose 1 mg/kg, dosed compound name [14C]Rivoglitazone, route oral; conditions: in vivo
[37] = Drug excretion in F344/DuCrlCrlj rat feces at 1 mg/kg, iv administered via tail vein measured during 0 to 48 hrs by liquid scintillation counting; format: ADME, organism-based; design: dose 1 mg/kg, dosed compound name [14C]Rivoglitazone, route intravenous; conditions: in vivo
[38] = Drug excretion in F344/DuCrlCrlj rat feces at 1 mg/kg, po administered via gavage measured during 0 to 168 hrs by liquid scintillation counting; format: ADME, organism-based; design: dose 1 mg/kg, dosed compound name [14C]Rivoglitazone, route oral; conditions: in vivo
Rattus norvegicus [39] = assay: Total drug excretion in F344/DuCrlCrlj rat at 1 mg/kg, iv administered via tail vein measured during 0 to 168 hrs by liquid scintillation counting; format: ADME, organism-based; design: dose 1 mg/kg, dosed compound name [14C]Rivoglitazone, route intravenous; conditions: in vivo
[40] = Drug excretion in bile duct-cannulated rat feces at 0.5 mg/kg, po administered via gavage measured during 0 to 48 hrs by liquid scintillation counting; format: ADME, organism-based; design: dose 0.5 mg/kg, dosed compound name [14C]Rivoglitazone, route oral; conditions: in vivo
Rhesus monkey [41] = assay: Total drug excretion in monkey at 1 mg/kg, po administered via gavage measured during 0 to 168 hrs by liquid scintillation counting; format: ADME, organism-based, Macaca mulatta; design: dose 1 mg/kg, dosed compound name [14C]Rivoglitazone, route oral; conditions: in vivo
[42] = Drug excretion in F344/DuCrlCrlj rat urine at 1 mg/kg, iv administered via tail vein measured during 0 to 168 hrs by liquid scintillation counting; format: ADME, organism-based; design: dose 1 mg/kg, dosed compound name [14C]Rivoglitazone, route intravenous; conditions: in vivo
[43] = Drug excretion in monkey urine at 1 mg/kg, po administered via gavage measured during 0 to 168 hrs by liquid scintillation counting; format: ADME, organism-based, Macaca mulatta; design: dose 1 mg/kg, dosed compound name [14C]Rivoglitazone, route oral; conditions: rhesus monkey, in vivo
[44] = Drug excretion in monkey feces at 1 mg/kg, iv administered […] measured during 0 to 48 hrs by liquid scintillation counting; format: ADME, organism-based, Macaca mulatta; design: dose 1 mg/kg, dosed compound name [14C]Rivoglitazone, route intravenous; conditions: rhesus monkey, in vivo
Rattus norvegicus [45] = assay: Drug excretion in bile duct-cannulated rat cage wash at 0.5 mg/kg, iv administered via tail vein measured during 0 to 48 hrs by liquid scintillation counting; format: ADME, organism-based; design: dose 0.5 mg/kg, dosed compound name [14C]Rivoglitazone, route intravenous; conditions: in vivo

Cn1c(COc2ccc(CC3SC(=O)NC3=O)cc2)nc2ccc(OS(=O)(=O)O)cc21 (stereo not given)
AUCmet/AUCp (Rattus norvegicus [1]): 23.4%
Compound recovery [2]: metabolite_not_detected
Compound recovery [3]: 10%
Compound recovery [4]: 10%
Compound recovery [5]: 23%
Retention_time [6]: 19 min
Compound recovery [7]: 33%
Compound recovery (Rattus norvegicus [8]): metabolite_detected
AUCmet/AUCp (Rhesus monkey [9]): 0.64%

COc1ccc2nc(COc3ccc(C[14CH]4SC(=O)NC4=O)cc3)n(C)c2c1 (racemic)
Radiolabel recovery (Rhesus monkey [10]): 86%
Radiolabel recovery (Rhesus monkey [11]): 54.3%
Radiolabel recovery [12]: 47.4%
Radiolabel recovery [13]: 18.3%
Radiolabel recovery [14]: 55.4%
Radiolabel recovery (Rattus norvegicus [15]): 99.7%
Radiolabel recovery [16]: 19.9%
Radiolabel recovery [17]: 37.2%
Radiolabel recovery [18]: 39.4%
Radiolabel recovery [19]: 38.4%
Radiolabel recovery (Rattus norvegicus [20]): 100%
Radiolabel recovery [21]: 53%
Radiolabel recovery (Rattus norvegicus [22]): 81%
Radiolabel recovery (Rhesus monkey [23]): 0.2%
Radiolabel recovery [24]: 7%
Radiolabel recovery [25]: 29.7%
Radiolabel recovery [26]: 75.4%
Radiolabel recovery (Rattus norvegicus [27]): 4.8%
Radiolabel recovery [28]: 18%
Radiolabel recovery [29]: 24.6%
Radiolabel recovery [30]: 18.4%
Radiolabel recovery (Rattus norvegicus [31]): 99.1%
Radiolabel recovery [32]: 25.5%
Radiolabel recovery (Rhesus monkey [33]): 49.7%
Radiolabel recovery (Rhesus monkey [34]): 0.1%
Radiolabel recovery (Rattus norvegicus [35]): 86.5%
Radiolabel recovery [36]: 81.1%
Radiolabel recovery [37]: 74.2%
Radiolabel recovery [38]: 82%
Radiolabel recovery (Rattus norvegicus [39]): 101%
Radiolabel recovery [40]: 19.1%
Radiolabel recovery (Rhesus monkey [41]): 90%
Radiolabel recovery [42]: 25.6%
Radiolabel recovery [43]: 36.7%
Radiolabel recovery [44]: 10.3%
Radiolabel recovery (Rattus norvegicus [45]): 5.7%
